Reference: the supplement of paper PMC11061612

How the values were obtained:
Experiment in all cases: Bliss excess, mean over the matrix (fraction); higher = more synergy
[1] = tested on: EB2 (Burkitt's Lymphoma)
Summary of the method: (§1)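 Bliss excess equals the observed combination effect minus the expected value EA + EB − EA·EB, where EA and EB are the effects of each agent alone. Combination Emax is the second-highest inhibition within the matrix. Inhibition was scaled from CellTiter-Glo 2.0 luminescence, with 0 set by vehicle wells and 1 by blank wells, after 72 hours of two-drug dosing of cells plated in 1536-well plates.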

[2] = tested on: CGTH-W-1 (Thyroid Gland Carcinoma)
Summary of the method: as §1

[3] = tested on: MHH-ES-1 (Ewing's Sarcoma)
Summary of the method: as §1

[4] = tested on: MDA-MB-436 (Breast Carcinoma)
Summary of the method: as §1

[5] = tested on: NCI-H1651 (Lung Adenocarcinoma)
Summary of the method: as §1

[6] = tested on: A2780 (Ovarian Carcinoma)
Summary of the method: as §1

[7] = tested on: PEO1 (Ovarian Carcinoma)
Summary of the method: as §1

[8] = tested on: WM1552C (Melanoma)
Summary of the method: as §1

[9] = tested on: EW-7 (Ewing's Sarcoma)
Summary of the method: as §1

[10] = tested on: A101D (Melanoma)
Summary of the method: as §1

[11] = tested on: DMS-53 (Small Cell Lung Carcinoma)
Summary of the method: as §1

[12] = tested on: HCC1428 (Breast Carcinoma)
Summary of the method: as §1

[13] = tested on: DU-4475 (Breast Carcinoma)
Summary of the method: as §1

| Structure (SMILES) | Bliss excess [1] | Bliss excess [2] | Bliss excess [3] | Bliss excess [4] | Bliss excess [5] | Bliss excess [6] | Bliss excess [7] | Bliss excess [8] | Bliss excess [9] | Bliss excess [10] | Bliss excess [11] | Bliss excess [12] | Bliss excess [13] |
| --- | --- | --- | --- | --- | --- | --- | --- | --- | --- | --- | --- | --- | --- |
| O=C(c1cc(Cc2n[nH]c(=O)c3ccccc23)ccc1F)N1CCN(C(=O)C2CC2)CC1 [Olaparib] + CN(CC[C@H](CSC1=CC=CC=C1)NC2=C(C=C(C=C2)S(=O)(=O)NC(=O)C3=CC=C(C=C3)N4CCC(CC4)[C@H](C5=CC=CC=C5C6=CC=C(C=C6)Cl)O)S(=O)(=O)C(F)(F)F)CCO [AZD4320] (first compound max 10 µM, 7x7, partner max 1 µM) | -0.0537 | -0.0482 | 0.0657 | -0.0288 | 0.0253 | -0.0295 | -0.083 | 0.0005 | 0.129 |  |  |  |  |
| C[C@@H]1COCCN1c1cc(C2([S@](C)(=N)=O)CC2)nc(-c2ccnc3[nH]ccc23)n1 [AZD6738] + Nc1ccn([C@@H]2O[C@H](CO)[C@@H](O)C2(F)F)c(=O)n1 [Gemcitabine] (first compound max 10 µM, 7x7, partner max 0.3 µM) | 0.0068 | 0.106 | 0.0624 | 0.0544 | 0.039 | -0.0243 | 0.0764 | 0.0225 | 0.0313 |  |  |  |  |
| Cc1c2c(nn1C)CSCc1cc(n(C)n1)CSc1cc(c3ccccc3c1)OCCCc1c(C(=O)O)n(C)c3c-2c(Cl)ccc13 [AZD5991] + CS(=O)(=O)CCNCc1ccc(-c2ccc3ncnc(Nc4ccc(OCc5cccc(F)c5)c(Cl)c4)c3c2)o1 [Lapatinib] (first compound max 1 µM, 7x7, partner max 10 µM) | -0.0287 | 0.0013 | 0.0286 | -0.0434 | -0.0015 | 0.0013 | -0.0352 | 0.0199 | 0.033 |  |  |  |  |
| O=C(c1cc(Cc2n[nH]c(=O)c3ccccc23)ccc1F)N1CCN(C(=O)C2CC2)CC1 [Olaparib] + Cc1c2c(nn1C)CSCc1cc(n(C)n1)CSc1cc(c3ccccc3c1)OCCCc1c(C(=O)O)n(C)c3c-2c(Cl)ccc13 [AZD5991] (first compound max 10 µM, 7x7, partner max 1 µM) | -0.0266 | -0.045 | 0.0108 | -0.0211 | -0.0207 | 0.0369 | -0.069 | 0.0329 | 0.015 |  |  |  |  |
| C[C@@H]1COCCN1c1cc(C2([S@](C)(=N)=O)CC2)nc(-c2ccnc3[nH]ccc23)n1 [AZD6738] + C1CC(C1)(C(=O)[O-])C(=O)[O-].N.N.[Pt+2] [Carboplatin] (first compound max 10 µM, 7x7, partner max 10 µM) | -0.0316 | -0.0098 | -0.0078 | -0.0038 | -0.0327 | -0.0379 | -0.0595 | -0.0299 | -0.0315 |  |  |  |  |
| Cc1c2c(nn1C)CSCc1cc(n(C)n1)CSc1cc(c3ccccc3c1)OCCCc1c(C(=O)O)n(C)c3c-2c(Cl)ccc13 [AZD5991] + CC(=O)O[C@H]1C(=O)[C@@]2(C)[C@H]([C@H](OC(=O)c3ccccc3)[C@]3(O)C[C@H](OC(=O)[C@H](O)[C@@H](NC(=O)c4ccccc4)c4ccccc4)C(C)=C1C3(C)C)[C@]1(OC(C)=O)CO[C@@H]1C[C@@H]2O [Paclitaxel] (first compound max 1 µM, 7x7, partner max 3 µM) | -0.083 | 0.037 | -0.009 | 0.0273 | -0.0345 | 0.0614 | -0.0624 | 0.0097 | 0.0625 |  |  |  |  |
| CS(=O)(=O)CCNCc1ccc(-c2ccc3ncnc(Nc4ccc(OCc5cccc(F)c5)c(Cl)c4)c3c2)o1 [Lapatinib] + Cn1cnc2c(F)c(Nc3ccc(Br)cc3Cl)c(C(=O)NOCCO)cc21 [Selumetinib] (first compound max 10 µM, 7x7, partner max 10 µM) | -0.0474 | -0.0291 | 0.0015 | -0.0587 | -0.0355 | -0.018 | -0.0453 | -0.0077 | 0.0166 |  |  |  |  |
| CS(=O)(=O)CCNCc1ccc(-c2ccc3ncnc(Nc4ccc(OCc5cccc(F)c5)c(Cl)c4)c3c2)o1 [Lapatinib] + NC1(c2ccc(-c3nc4ccn5c(=O)[nH]nc5c4cc3-c3ccccc3)cc2)CCC1 [MK-2206] (first compound max 10 µM, 7x7, partner max 10 µM) | -0.0348 | 0.0174 | 0.0191 | 0.0323 | -0.0008 | -0.027 | -0.0687 | -0.0297 | 0.0239 | -0.0638 | 0.0185 | 0.0023 | 0.0428 |
| C=CCn1c(=O)c2cnc(Nc3ccc(N4CCN(C)CC4)cc3)nc2n1-c1cccc(C(C)(C)O)n1 [AZD1775] + Nc1ccn([C@@H]2O[C@H](CO)[C@@H](O)C2(F)F)c(=O)n1 [Gemcitabine] (first compound max 1 µM, partner max 0.3 µM) | 0.0066 | 0.0167 | 0.0359 | 0.0536 | -0.0104 | 0.0543 | 0.0712 | -0.0467 | 0.0396 |  |  |  |  |
| C=CCn1c(=O)c2cnc(Nc3ccc(N4CCN(C)CC4)cc3)nc2n1-c1cccc(C(C)(C)O)n1 [AZD1775] + CCc1c2c(nc3ccc(O)cc13)-c1cc3c(c(=O)n1C2)COC(=O)[C@]3(O)CC [SN-38] (first compound max 1 µM, partner max 0.3 µM) | -0.0507 | -0.0747 | -0.0073 | -0.0545 | -0.0342 | -0.0704 | -0.0267 | -0.0628 | -0.0501 |  |  |  |  |
| CN(CCO)CC[C@H](CSc1ccccc1)Nc1ccc(S(=O)(=O)NC(=O)c2ccc(N3CCC([C@@H](O)c4ccccc4-c4ccc(Cl)cc4)CC3)cc2)cc1S(=O)(=O)C(F)(F)F [AZD4320] + CS(=O)(=O)CCNCc1ccc(-c2ccc3ncnc(Nc4ccc(OCc5cccc(F)c5)c(Cl)c4)c3c2)o1 [Lapatinib] (first compound max 1 µM, 7x7, partner max 10 µM) | -0.104 | -0.0184 | 0.136 | -0.0333 | 0.0395 | 0.0005 | 0.0311 | 0.0285 | 0.138 |  |  |  |  |
| Cc1c2c(nn1C)CSCc1cc(n(C)n1)CSc1cc(c3ccccc3c1)OCCCc1c(C(=O)O)n(C)c3c-2c(Cl)ccc13 [AZD5991] + Nc1ccn([C@@H]2O[C@H](CO)[C@@H](O)C2(F)F)c(=O)n1 [Gemcitabine] (first compound max 1 µM, 7x7, partner max 0.3 µM) | -0.0405 | -0.0235 |  | -0.06 | 0.0582 | -0.0035 | -0.0523 | -0.0232 | -0.0158 |  |  |  |  |
| C[C@@H](Oc1cc(-c2cnn(C3CCNCC3)c2)cnc1N)c1c(Cl)ccc(F)c1Cl [Crizotinib] + Cn1cnc2c(F)c(Nc3ccc(Br)cc3Cl)c(C(=O)NOCCO)cc21 [Selumetinib] (first compound max 10 µM, 7x7, partner max 10 µM) | -0.0748 | -0.0275 | -0.0236 | -0.005 | -0.0478 | 0.0077 | -0.0013 | -0.0338 | -0.0101 |  |  |  |  |
| CC1(C)CCC(CN2CCN(c3ccc(C(=O)NS(=O)(=O)c4ccc(NCC5CCOCC5)c([N+](=O)[O-])c4)c(Oc4cnc5[nH]ccc5c4)c3)CC2)=C(c2ccc(Cl)cc2)C1 [Venetoclax] + CS(=O)(=O)CCNCc1ccc(-c2ccc3ncnc(Nc4ccc(OCc5cccc(F)c5)c(Cl)c4)c3c2)o1 [Lapatinib] (first compound max 1 µM, 7x7, partner max 10 µM) | -0.039 | -0.0396 | 0.0086 | -0.0222 | -0.0182 | -0.0363 | -0.0673 | -0.0328 | 0.0078 |  |  |  |  |
| Cc1nc(-c2cn3c(n2)-c2ccc(-c4cnn(C(C)(C)C(N)=O)c4)cc2OCC3)n(C(C)C)n1 [Taselisib] + O=C(Nc1ccc2[nH]nc(-c3ccncc3)c2c1)[C@@H]1CCN(CC(=O)N2CCN(c3ccc(-c4ncccn4)cc3)CC2)C1 [SCH772984] (first compound max 10 µM, 7x7, partner max 5 µM) | 0.0182 | 0.0884 | 0.102 | -0.0028 | 0.0132 | -0.0087 | 0.0874 | 0.0205 | 0.0128 |  |  |  |  |
| O=C(c1cc(Cc2n[nH]c(=O)c3ccccc23)ccc1F)N1CCN(C(=O)C2CC2)CC1 [Olaparib] + CC1(C)CCC(CN2CCN(c3ccc(C(=O)NS(=O)(=O)c4ccc(NCC5CCOCC5)c([N+](=O)[O-])c4)c(Oc4cnc5[nH]ccc5c4)c3)CC2)=C(c2ccc(Cl)cc2)C1 [Venetoclax] (first compound max 10 µM, 7x7, partner max 1 µM) | -0.0324 | -0.0433 | 0.0283 | -0.0518 | 0.001 | -0.0044 | -0.0786 | -0.0325 | 0.0125 |  |  |  |  |
| C[C@@H](Nc1cc(F)cc(F)c1)c1cc(C(=O)N(C)C)cc2c(=O)cc(N3CCOCC3)oc12 [AZD8186] + C1CN(CCC1(C(=O)N[C@@H](CCO)C2=CC=C(C=C2)Cl)N)C3=NC=NC4=C3C=CN4 [AZD5363] (first compound max 10 µM, 7x7, partner max 10 µM) | -0.0292 | -0.0136 | 0.0026 | -0.0162 | -0.0302 | -0.0411 | -0.0405 | -0.0322 | -0.03 |  |  |  |  |
| O=C(c1cc(Cc2n[nH]c(=O)c3ccccc23)ccc1F)N1CCN(C(=O)C2CC2)CC1 [Olaparib] + COc1nnc2ccc(N3CCC(c4ccc(OCCN5CCN(C)C(=O)[C@H]5C)cc4)CC3)nn12 [AZD5153] (first compound max 10 µM, 7x7, partner max 1 µM) | -0.0329 | -0.0247 | 0.0286 | -0.0247 | -0.0044 | -0.0856 | -0.0367 | -0.0553 | 0.0362 |  |  |  |  |
| C[C@@H](Oc1cc(-c2cnn(C3CCNCC3)c2)cnc1N)c1c(Cl)ccc(F)c1Cl [Crizotinib] + CC1=C(C(=CC=C1)Cl)NC(=O)C2=CN=C(S2)NC3=CC(=NC(=N3)C)N4CCN(CC4)CCO [Dasatinib] (first compound max 10 µM, 7x7, partner max 2 µM) | 0.0112 | 0.0795 | -0.0279 | -0.0418 | -0.0149 | 0.051 | -0.0226 | 0.0392 | -0.0072 |  |  |  |  |
| C[C@@H](Nc1cc(F)cc(F)c1)c1cc(C(=O)N(C)C)cc2c(=O)cc(N3CCOCC3)oc12 [AZD8186] + CC(=O)c1c(C)c2cnc(Nc3ccc(N4CCNCC4)cn3)nc2n(C2CCCC2)c1=O [Palbociclib] (first compound max 10 µM, 7x7, partner max 10 µM) | 0.0045 | 0.0397 | 0.108 | -0.0039 | -0.0192 | 0.0054 | -0.026 | -0.0163 | 0.045 |  |  |  |  |
